Numbered stars: 1 amine (or outer) side, 2 acyl side, 3 side chain; on linkers, the order of the positions; unused ones are H or OH. Bridge positions count the residues as written; N and C are the ends. Square brackets hold non-standard residues; d marks the D form. Ends that are not written are not given here. Peptide text beside a SMILES is read from it. ξ: configuration not given here. ξLeu(ψCOCO) = CC(C)CC(N[*:1])C(=O)C(=O)[*:2]; X1 = CSCCC(N[*:1])C(=O)C(=O)[*:2]
How the values were obtained:
chymotrypsin = chymotrypsin (Bos taurus, UniProt P00766); assay: Chymotrypsin inhibition assay; format: biochemical; settings: for protease inhibitory activity: chymotrypsin, result in words
[1] = target: T1, human neutrophil elastase (Homo sapiens, UniProt P08246); assay: Human neutrophil elastase inhibition assay; format: biochemical; settings: for protease inhibitory activity: human neutrophil elastase, result in words
T1 sequence (P08246 30-267): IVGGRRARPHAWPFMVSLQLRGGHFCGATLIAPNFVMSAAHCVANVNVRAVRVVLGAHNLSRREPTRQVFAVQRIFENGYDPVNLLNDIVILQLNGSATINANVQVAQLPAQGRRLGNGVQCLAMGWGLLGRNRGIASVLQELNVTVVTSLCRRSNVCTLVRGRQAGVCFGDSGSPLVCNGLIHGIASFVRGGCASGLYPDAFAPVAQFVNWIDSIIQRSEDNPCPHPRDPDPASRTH

[2] = tested on: herpes simplex virus (HSV); settings: for IC50: 42 h; for antiviral activity: HSV, result in words
[3] = tested on: lymphocytic choriomeningitis virus (LCMV); settings: for IC50: 1 h
influenza A virus (IAV) = assay: Antiviral assay against IAV; format: cell-based, IAV strain A/WSN/1933 (H1N1); settings: result in words
human cathepsin B = human cathepsin B (Homo sapiens, UniProt P07858); assay: Cathepsin B inhibition assay; format: biochemical; settings: for protease inhibitory activity: cathepsin B, result in words
MC57G fibroblast cells = settings: for cytotoxic effects: LIVE/DEAD staining, 2 days post-treatment
Huh7 = assay: Cell detachment in Huh7 cells; format: cell-based; settings: Huh7 cell line
HeLa = assay: Cell detachment in HeLa cells; format: cell-based; settings: HeLa cell line

Row | Compound | protease inhibitory activity (chymotrypsin) | protease inhibitory activity [1] | IC50 [2] [µM] | antiviral activity [2] | antiviral activity [3] | IC50 [3] [µM] | antiviral activity (influenza A virus (IAV)) | protease inhibitory activity (human cathepsin B) | IC50 (chymotrypsin) [µM] | IC50 [1] [µM] | cytotoxic effects (MC57G fibroblast cells) | IC50 (human cathepsin B) [µM] | concentration at which cell detachment from the assay plates was observed (MC57G fibroblast cells; low levels / slight detachment) | cell detachment (Huh7) | cell detachment (HeLa)
1 | GTVTGSILTPIDYGCFNPFLCSVAMYGGVIDPIRFPNAWREL (disulfide 15-21) [Compound 5, G-RcsA*] | did not exhibit any protease inhibitory and antiviral activity | did not exhibit any protease inhibitory and antiviral activity | > 200 | did not exhibit any protease inhibitory and antiviral activity | did not exhibit any protease inhibitory and antiviral activity | > 200 | did not exhibit any protease inhibitory and antiviral activity | did not exhibit any protease inhibitory and antiviral activity | – | – | – | – | – | – | –
2 | CC[C@H](C)[C@H](N)C(=O)N[C@@H](CC(N)=O)C(=O)N[C@@H](C)C(=O)N[C@H](C(=O)NCC(=O)N[C@@H](CCC(N)=O)C(=O)N[C@@H](CCCNC(=N)N)C(=O)N[C@H](C(=O)N[C@@H](CC(=O)O)C(=O)N[C@@H](CO)C(=O)N[C@@H](CO)C(=O)N[C@H](C(=O)N[C@@H](Cc1ccccc1)C(=O)N[C@H](C(=O)N[C@@H](Cc1c[nH]cn1)C(=O)N[C@H]1CSSC[C@@H](C(=O)NCC(=O)N[C@H](C(=O)N[C@@H](C)C(=O)N[C@@H](CC(C)C)C(=O)N[C@@H](Cc2ccc(O)cc2)C(=O)NCC(=O)N[C@@H](CO)C(=O)N[C@H](C(=O)N[C@H](C(=O)N[C@@H](CC(=O)O)C(=O)N2CCC[C@H]2C(=O)N[C@@H](Cc2c[nH]cn2)C(=O)N[C@@H](CCCNC(=N)N)C(=O)N[C@@H](Cc2ccccc2)C(=O)N[C@@H](CC(=O)O)C(=O)N[C@@H](CCSC)C(=O)N[C@@H](CC(C)C)C(=O)N2CCC[C@H]2C(=O)O)[C@@H](C)CC)C(C)C)C(C)C)NC(=O)[C@H](C(C)C)NC(=O)[C@H](Cc2ccccc2)NC(=O)[C@H](Cc2ccccc2)NC(=O)[C@H](CC(=O)O)NC1=O)[C@@H](C)O)C(C)C)[C@@H](C)CC)[C@@H](C)O [Compound 6, RasA*] (H-INATGQRIDSSVFTHCDFFVCGVALYGSVIDPHRFDMLP-OH; disulfide 16-21; N-terminus assumed) | did not exhibit any protease inhibitory and antiviral activity | did not exhibit any protease inhibitory and antiviral activity | > 200 | did not exhibit any protease inhibitory and antiviral activity | did not exhibit any protease inhibitory and antiviral activity | > 200 | did not exhibit any protease inhibitory and antiviral activity | did not exhibit any protease inhibitory and antiviral activity | – | – | – | – | – | – | –
3 | GTVTGSILTPIDYGCFNPFLCSVA[X1]GGVIDPIRFPNAWREL (disulfide 15-21) [Compound 3, G-RcsA*-Tyn] | – | – | 69.7 | – | – | 37 | – | – | 9.2 | 5.76 | no significant cytotoxic effects | 3.74 | – | – | –
4 | CC[C@H](C)[C@H](N)C(=O)N[C@@H](CC(N)=O)C(=O)N[C@@H](C)C(=O)N[C@H](C(=O)NCC(=O)N[C@@H](CCC(N)=O)C(=O)N[C@@H](CCCNC(=N)N)C(=O)N[C@H](C(=O)N[C@@H](CC(=O)O)C(=O)N[C@@H](CO)C(=O)N[C@@H](CO)C(=O)N[C@H](C(=O)N[C@@H](Cc1ccccc1)C(=O)N[C@H](C(=O)N[C@@H](Cc1c[nH]cn1)C(=O)N[C@H]1CSSC[C@@H](C(=O)NCC(=O)N[C@H](C(=O)N[C@@H](C)C(=O)NC(CC(C)C)C(=O)C(=O)NCC(=O)N[C@@H](CO)C(=O)N[C@H](C(=O)N[C@H](C(=O)N[C@@H](CC(=O)O)C(=O)N2CCC[C@H]2C(=O)N[C@@H](Cc2c[nH]cn2)C(=O)N[C@@H](CCCNC(=N)N)C(=O)N[C@@H](Cc2ccccc2)C(=O)N[C@@H](CC(=O)O)C(=O)N[C@@H](CCSC)C(=O)N[C@@H](CC(C)C)C(=O)N2CCC[C@H]2C(=O)O)[C@@H](C)CC)C(C)C)C(C)C)NC(=O)[C@H](C(C)C)NC(=O)[C@H](Cc2ccccc2)NC(=O)[C@H](Cc2ccccc2)NC(=O)[C@H](CC(=O)O)NC1=O)[C@@H](C)O)C(C)C)[C@@H](C)CC)[C@@H](C)O (stereo partly shown) [Compound 4, RasA*-Tyn] (H-INATGQRIDSSVFTHCDFFVCGVA[ξLeu(ψCOCO)]GSVIDPHRFDMLP-OH; disulfide 16-21; N-terminus assumed) | – | – | 28.8 | – | – | 15.2 | – | – | – | – | no significant cytotoxic effects | – | above 50 µM | not detected | not detected

Reference: paper PMC11626197 (Proceedings of the National Academy of Sciences of the …, 2024)
